The values that follow come from US8597901B2, “2,5-diketo-L-gluconic acid reductases and methods of use” (Danisco US Inc., priority 2000, dated 2013).

Molecules are shown by their SMILES. Read-outs that look alike come from different tables or passages of the source.

In assay [1] the test system is environmental 2,5-diketo-D-gluconic acid reductase (form not stated). The settings on record: read-out: apparent Km of stimulation by inorganic phosphate, NADH-dependent activity.
For assay [2], the system named is environmental 2,5-diketo-D-gluconic acid reductase DKGRc (pI-14, SEQ ID NO: 8) variant R238Q. Description: Kinetic parameters of purified R238Q mutant of DKGRc. The assay is classed as biochemical, environmental DNA (uncultured, soil). The source says:
Site specific mutants of DKGRc were constructed by overlap extension PCR. […] The oligonucleotides:
were complementary to the antisense and sense strands, respectively, and introduced the changes K232Q and R238Q, respectively. The bases that differ from the native sequence are underlined. Each oligonucleotide was paired with the appropriate adapter primer (i.e. primers for amplifying the gene for insertion into expression vectors) in PCR's to generate fragments of the DKGRc gene that incorporated one of the two changes. Primers were also synthesized that matched the native DNA sequence. When used with the appropriate adapter primer, these generated an unmodified fragment of the gene. […] The amplification of the full-length genes was driven by addition of both adapter primers.

For `O=P(O)(O)O` [Pi], the Km in assay [1] came to 1.3 mM.
As to `NC(=O)C1=CN([C@@H]2O[C@H](COP(=O)(O)OP(=O)(O)OC[C@H]3O[C@@H](n4cnc5c(N)ncnc54)[C@H](OP(=O)(O)O)[C@@H]3O)[C@@H](O)[C@H]2O)C=CC1` [NADPH], in assay [2] (R238Q versus native DKGRc), the “Km for NADPH, increase over native” value is listed as 18 fold. Moreover, in assay [2] (R238Q versus native DKGRc, NADPH), the “kcat, increase over native” value is listed as 3.5 fold. Moreover, the Km in assay [2] (read-out: Km, nadph, R238Q, NADPH as cosubstrate) is 55 µM.
As to `NC(=O)C1=CN([C@@H]2O[C@H](COP(=O)(O)OP(=O)(O)OC[C@H]3O[C@@H](n4cnc5c(N)ncnc54)[C@H](O)[C@@H]3O)[C@@H](O)[C@H]2O)C=CC1` [NADH], in assay [2] (R238Q versus native DKGRc), the “Km for NADH, effect of mutation” value is “not affected by the mutation” and the “catalytic efficiency with NADH as cosubstrate, increase over native” value was found to be 7 fold. For the same compound, in assay [2] (R238Q, NADH as cosubstrate), the kcat is 12 S^−1. The Km in assay [2] (R238Q, NADH as cosubstrate, read-out: Km, nadh) came to 1900 µM.
For `O=C(O)C(=O)[C@@H](O)[C@H](O)C(=O)CO` [DKG, 2,5-diketo-D-gluconic acid], the “Km for 2,5-diketo-D-gluconic acid, increase over native” value in assay [2] (R238Q versus native DKGRc) is reported as 7.7 fold. The Km in assay [2] (R238Q, read-out: Km for 2,5-diketo-D-gluconic acid) was 440 µM.
